Source: the supplement of paper PMC12420376

Tested on: KURAMOCHI
Assay: cancer cell viability relative to untreated control; higher = less cytotoxic
Settings: 72 h
Procedure: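 KURAMOCHI or OVCAR8 cells were grown in monoculture or in co-culture with WI38 or patient-derived 030F fibroblasts and treated for 72 h with a dose matrix of carboplatin combined with birinapant or vorinostat (doses in nM). Cancer cell viability was measured by CK8/18 immunofluorescence imaging and expressed as % of untreated control, given as mean with SD.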

O=C(O)C1(C(=O)O)CCC1.[NH2-].[NH2-].[Pt+2] [Carboplatin] + CC[C@H](NC(=O)[C@H](C)NC)C(=O)N1C[C@@H](O)C[C@H]1Cc1c(-c2[nH]c3cc(F)ccc3c2C[C@@H]2C[C@H](O)CN2C(=O)[C@H](CC)NC(=O)[C@H](C)NC)[nH]c2cc(F)ccc12 [Birinapant]
cancer cell viability [%]
Settings	partner drug concentration 0 nM	partner drug concentration 0.1 nM	partner drug concentration 1 nM	partner drug concentration 10 nM	partner drug concentration 100 nM	partner drug concentration 1000 nM
carboplatin concentration 10 nM, co-cultured fibroblast: 030F	95.1	97.5	93.4	82.9	81.5	84.3
carboplatin concentration 10 nM, co-cultured fibroblast: WI38	93.7	94.4	87.7	85	80.4	77.7
carboplatin concentration 10 nM, co-cultured fibroblast: none (monoculture)	101	93.7	90.3	79.5	73.8	67.6
carboplatin concentration 100 nM, co-cultured fibroblast: 030F	95.5	92	94.7	95.6	84.5	85.6
carboplatin concentration 100 nM, co-cultured fibroblast: WI38	91.6	88.5	90.5	98.4	86.1	82.2
carboplatin concentration 100 nM, co-cultured fibroblast: none (monoculture)	95.7	89.2	91.7	97.3	66.7	67.3
carboplatin concentration 1000 nM, co-cultured fibroblast: 030F	91.6	92.2	100	91.7	82.9	87.1
carboplatin concentration 1000 nM, co-cultured fibroblast: WI38	94.4	99.2	98.2	97.8	88.5	77.5
carboplatin concentration 1000 nM, co-cultured fibroblast: none (monoculture)	102	95	90.7	90.3	74.3	61
carboplatin concentration 1e+05 nM, co-cultured fibroblast: 030F	44.4	50.4	60.3	52.9	40.4	54.9
carboplatin concentration 1e+05 nM, co-cultured fibroblast: WI38	31.1	41.9	48	43.7	36.4	44.2
carboplatin concentration 1e+05 nM, co-cultured fibroblast: none (monoculture)	26.6	33.6	38.4	37.9	18.6	24.4
carboplatin concentration 10000 nM, co-cultured fibroblast: 030F	51.7	80.8	88.2	88.8	72.4	71.7
carboplatin concentration 10000 nM, co-cultured fibroblast: WI38	40.7	80	83.2	91.4	74.1	69.9
carboplatin concentration 10000 nM, co-cultured fibroblast: none (monoculture)	23.9	95.4	72.3	84.6	57.4	51.8

O=C(O)C1(C(=O)O)CCC1.[NH2-].[NH2-].[Pt+2] [Carboplatin] + O=C(CCCCCCC(=O)Nc1ccccc1)NO [Vorinostat]
cancer cell viability [%]
Settings	partner drug concentration 0 nM	partner drug concentration 1 nM	partner drug concentration 10 nM	partner drug concentration 100 nM	partner drug concentration 1000 nM	partner drug concentration 10000 nM
carboplatin concentration 10 nM, co-cultured fibroblast: 030F	95.1	107	95.5	77.5	36.9	4.67
carboplatin concentration 10 nM, co-cultured fibroblast: WI38	93.7	107	97.6	70	26.5	5.05
carboplatin concentration 10 nM, co-cultured fibroblast: none (monoculture)	101	111	101	67.6	31.1	-0.479
carboplatin concentration 100 nM, co-cultured fibroblast: 030F	95.5	106	102	75.9	28.8	3.53
carboplatin concentration 100 nM, co-cultured fibroblast: WI38	91.6	101	91.2	63.2	21	5.14
carboplatin concentration 100 nM, co-cultured fibroblast: none (monoculture)	95.7	101	92.7	63.3	24.3	0.0805
carboplatin concentration 1000 nM, co-cultured fibroblast: 030F	91.6	85.7	89.1	58.1	31.1	6.6
carboplatin concentration 1000 nM, co-cultured fibroblast: WI38	94.4	88.8	88.6	52	18.7	5.75
carboplatin concentration 1000 nM, co-cultured fibroblast: none (monoculture)	102	103	91.6	54.2	20.8	1.21
carboplatin concentration 1e+05 nM, co-cultured fibroblast: 030F	44.4	47.7	47.7	38	39	1.97
carboplatin concentration 1e+05 nM, co-cultured fibroblast: WI38	31.1	39.3	39.4	30.1	20.6	0.366
carboplatin concentration 1e+05 nM, co-cultured fibroblast: none (monoculture)	26.6	37.6	37	22.8	21.3	-3.77
carboplatin concentration 10000 nM, co-cultured fibroblast: 030F	51.7	72.2	71.1	55.5	45	3.59
carboplatin concentration 10000 nM, co-cultured fibroblast: WI38	40.7	72	68	46.1	28.8	4.43
carboplatin concentration 10000 nM, co-cultured fibroblast: none (monoculture)	23.9	80.8	62.8	49.1	27.5	-0.104
